Laboratory results from PMC4936777 (ACS chemical neuroscience, 2015).
Converted amounts (≈) assume the structure as drawn.

Assays:
[1] = system: isolated, intact rat trabecular muscle; experiment: Force development of isolated intact trabecular muscle; conditions: 100 μM
C57/Bl6 mice = experiment: Pharmacological activity and EEG in mice after IV bolus; type: in vivo, mouse
α1β2γ2L GABAA receptor = α1β2γ2L GABAA receptor (Homo sapiens, UniProt P14867+P18507+P47870); experiment: Two electrode voltage clamp of GABAA receptors expressed in X. laevis oocytes; type: cell-based; conditions: for modulation of GABA EC10 current: coexposure with GABA EC10, −80 mV; for direct activation of the receptor in the absence of GABA: fropofol at 5 and 50 μM
[2] = target: T1, horse spleen apoferritin (HSAF) (Equus caballus, UniProt P02791); experiment: 1-aminoanthracene; type: binding
T1 sequence (P02791 2-175 limits assumed): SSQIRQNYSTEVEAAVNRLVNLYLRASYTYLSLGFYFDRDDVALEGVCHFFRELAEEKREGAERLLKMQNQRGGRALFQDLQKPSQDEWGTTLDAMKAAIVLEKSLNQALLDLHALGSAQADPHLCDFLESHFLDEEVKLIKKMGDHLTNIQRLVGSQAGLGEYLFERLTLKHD

[3] = target: T1, horse spleen apoferritin (HSAF); experiment: [3H]AziPm photolabel competition with HSAF; type: binding; conditions: One μM ligand
[4] = target: T1, horse spleen apoferritin (HSAF); experiment: Isothermal titration calorimetry with HSAF; type: binding
in vivo = conditions: C57/B6, mouse, iv
[5] = target: T2, human serum albumin (hSA) (Homo sapiens, UniProt P02768); conditions: single site binding model
[6] = system: albino Xenopus laevis tadpoles; type: in vivo
physchem = type: physicochemical; conditions: water, thermodynamic from solid
[7] = target: T2, human serum albumin (hSA); experiment: biochemical
[8] = target: human serum albumin (hSA) domain III (Homo sapiens, UniProt P02768); experiment: in vitro

For `CC(C)c1cccc(C(C)C)c1O` [propofol, 2,6-diisopropylphenol, reference compound], the “depression (reduction) of maximum force development” value ([1]; room temperature) was 49 ± 4%, the “loss of righting reflex in mice” value (C57/Bl6 mice; 20 mg/kg) was “produced” and the “modulation of GABA EC10 current” value (α1β2γ2L GABAA receptor) was “concentration-dependent increase in current up to 80 μM”. For the same compound, the “direct activation of the receptor in the absence of GABA” value (α1β2γ2L GABAA receptor) was “minor direct activation”, the Kd [2] was 10 µM and the “reduction in [3H]AziPm binding to HSAF” value [3] was 31%.
For `CC(C)c1cccc(C(C)C)c1F` [fropofol, 2-fluoro-1,3-diisopropylbenzene], the Kd [4] was 1.7 µM, the “fold increase in affinity for HSAF relative to propofol (ITC)” value ([4]; relative to propofol) was 4- to 5 fold and the “depression (reduction) of maximum force development” value ([1]; LBN/F1, rat) was 35 ± 1%. The concentration at 45 s (in vivo; 96 mg/kg) was 38000 ng/g, the concentration at 10 min (in vivo; 200 mg/kg) was 51000 ng/g and the “stoichiometry n for hSA (ITC)” value [5] was 1.3 ± 0.9. The “loss-of-mobility endpoints in tadpoles” value ([6]; 3–100 μM, 60 and 90 min exposure) was “none of the X. laevis tadpoles within any dose group exhibited the standard loss-of-mobility endpoints”, the “time to resume normal swimming behaviors after exchange for fresh pond water” value ([6]; albino, Xenopus laevis, in vivo) was 10 to 15 min and the “observable effects in mice” value (C57/Bl6 mice; 96 mg/kg, bolus tail vein injection, 10% lipid emulsion) was “no observable effects”. For the same compound, the “toxicity in mice in the following days postinjection” value (C57/Bl6 mice; 180 mg/kg IV) was “no toxicity was observed”, the “time to resume normal activity in mice” value (C57/Bl6 mice; C57/B6, mouse, in vivo) was 2 to 3 h and the “EEG recording in mice” value (C57/Bl6 mice; mouse, in vivo) was “Phenotypical seizure activity”. The “EEG recordings and physical observation in mice” value (C57/Bl6 mice; mouse, in vivo) was “generalized tonic-clonic seizure-like activity”, the “loss of righting reflex in mice” value (C57/Bl6 mice; up to the highest dose) was “not with even the highest dose” and the solubility at 24 h (physchem) was 116 ± 4.4 µM (≈ 20.9 µg/mL). For the same compound, the “effect on propofol positive modulation of the GABAA receptor” value (α1β2γ2L GABAA receptor; 50 μM fropofol, with GABA EC10 and propofol) was “no significant change”, the “modulation of GABA EC10 current” value (α1β2γ2L GABAA receptor) was “no significant modulation or inhibition” and the “direct activation of the receptor in the absence of GABA” value (α1β2γ2L GABAA receptor) was “no significant direct activation”. The “effect on 5 μM propofol potentiation of GABAA receptor currents” value (α1β2γ2L GABAA receptor; saturating concentrations of fropofol, with GABA EC10) was “no significant alteration”, the Kd [7] was 91 µM and the inhibition at 75 µM [8] was 37 ± 12%. The Kd [2] was 0.7 µM and the “reduction in [3H]AziPm binding to HSAF” value [3] was 61%.
Compound `NCCCC(=O)O` [GABA, γ-Aminobutyric acid, reference compound] has a Hill coefficient (α1β2γ2L GABAA receptor; GABA concentration–response, mean ± SEM) of 0.87 ± 0.04.
